Several values for one entry are separate records, joined by “and”; a condition that tells them apart may be missing. Equal values may be shown once.
What was measured:
Format in all cases: in vivo, rat
pregnancy in rats [1] = assay: Pregnancy termination in rats, compounds administered intragastrically for four days (Table 1); conditions: for Serum Progesterone (Percent Control) / Serum Progesterone ng/ml + S.E.: serum day 11, 24 hours after initial injection; for Adrenal Wt. mg + SE / Fetal Viability: Normal Fetuses/Implantation Sites / Fetal Viability: Normal Fetuses/Implantation Sites (Percent) / Number of Rats Pregnant/Number of Rats Treated / Number of Rats Pregnant/Number of Rats Treated (Percent): autopsy day 14
Experimental: (§1) The following tables list the results for a compound of Formula IV as compared with a control of previously known 2α-cyano-17β-hydroxy-3-oxo-4,4,17α-trimethylandrost-5-end(Cyanoketone) for termination of pregnancy.
(§2) ^1 Compounds were administered intragastrically once daily on days 10
through 13 of pregnancy in a vehicle consisting of PEG400, propylene
glycol and 100 percent ethanol (50:40:10, v:v:v). Serum for progesterone
determination was drawn on day 11 of pregnancy, 24 hours after the initia
injection of compound. The animals were autopsied on day 14 of pregnancy.

pregnancy in rats [2] = assay: Termination of pregnancy in rats, compounds administered subcutaneously (Table 2); conditions: for Serum Progesterone (Percent Control) / Serum Progesterone ng/ml + S.E.: serum day 11, 24 hours after initial injection
Experimental: as §1
^1 Compounds given subcutaneously in corn oil vehicle once daily on
days 10 through 13 of pregnancy. Serum for progesterone determination was
drawn on day 11 of pregnancy, 24 hours after the initial injection of
(§3) compound. The animals were autopsied on day 14 of pregnancy.
^2 Serum progesterone values determined by RIA at Interlab Associates

pregnancy in rats [3] = assay: Pregnancy termination in rats, compounds administered intragastrically on day 10 of pregnancy (Table 3); conditions: for Serum Progesterone (Percent Control) / Serum Progesterone ng/ml + S.E.: serum day 11, 24 hours after injection; for Adrenal Wt. mg + SE / Fetal Viability: Normal Fetuses/Implantation Sites / Fetal Viability: Normal Fetuses/Implantation Sites (Percent) / Number of Rats Pregnant/Number of Rats Treated / Number of Rats Pregnant/Number of Rats Treated (Percent): autopsy day 14
Experimental: as §1, §2
of pregnancy in a vehicle consisting of PEG400, propylene glycol and 100
percent ethanol (50:40:10, v:v:v). Serum for progesterone determination
was drawn on day 11 of pregnancy, 24 hours after the initial injection of
as §3

[4] = 2 mg/kg/day intragastrically days 10-13 of pregnancy
[5] = 2 mg/kg/day intragastrically once daily days 10-13 of pregnancy
[6] = 4 mg/kg/day intragastrically days 10-13 of pregnancy
[7] = 4 mg/kg/day intragastrically once daily days 10-13 of pregnancy
[8] = 8 mg/kg/day intragastrically days 10-13 of pregnancy
[9] = 8 mg/kg/day intragastrically once daily days 10-13 of pregnancy
[10] = 16 mg/kg/day intragastrically days 10-13 of pregnancy
[11] = 16 mg/kg/day intragastrically once daily days 10-13 of pregnancy
[12] = 2 mg/kg/day subcutaneously days 10-13 of pregnancy
[13] = 2 mg/kg/day subcutaneously in corn oil once daily days 10-13 of pregnancy, autopsy day 14
[14] = 4 mg/kg/day subcutaneously days 10-13 of pregnancy
[15] = 4 mg/kg/day subcutaneously in corn oil once daily days 10-13 of pregnancy, autopsy day 14
[16] = 8 mg/kg/day subcutaneously days 10-13 of pregnancy
[17] = 8 mg/kg/day subcutaneously in corn oil once daily days 10-13 of pregnancy, autopsy day 14
[18] = 16 mg/kg/day subcutaneously days 10-13 of pregnancy, 16 mg/kg/day
[19] = 16 mg/kg/day subcutaneously in corn oil once daily days 10-13 of pregnancy, autopsy day 14
[20] = 16 mg/kg/day subcutaneously in corn oil once daily days 10-13 of pregnancy, autopsy day 14, 16 mg/kg/day
[21] = 4 mg/kg intragastrically on day 10 of pregnancy
[22] = 4 mg/kg intragastrically once on day 10 of pregnancy
[23] = 8 mg/kg intragastrically on day 10 of pregnancy
[24] = 8 mg/kg intragastrically once on day 10 of pregnancy
[25] = 16 mg/kg intragastrically on day 10 of pregnancy
[26] = 16 mg/kg intragastrically once on day 10 of pregnancy

Structure (SMILES): CC(=O)OC1=C(C#N)C[C@@]2(C)C(=CC[C@@H]3[C@@H]2CC[C@@]2(C)[C@H]3CC[C@]2(C)O)C1(C)C [3-(acetyloxy)-17β-hydroxy-4,4,17α-trimethylandrosta-2,5-diene-2-carbonitrile]
- Serum Progesterone (Percent Control) (pregnancy in rats [1]; [4]): 109 Percent Control
- Serum Progesterone ng/ml + S.E. (pregnancy in rats [1]; [4]): 49.6 + 6.2 ng/ml
- Adrenal Wt. mg + SE (pregnancy in rats [1]; [5]): 68.9 + 2.2 mg
- Fetal Viability: Normal Fetuses/Implantation Sites (pregnancy in rats [1]; [5]): 60/89
- Fetal Viability: Normal Fetuses/Implantation Sites (Percent) (pregnancy in rats [1]; [5]): 67%
- Number of Rats Pregnant/Number of Rats Treated (pregnancy in rats [1]; [5]): 7/9
- Number of Rats Pregnant/Number of Rats Treated (Percent) (pregnancy in rats [1]; [5]): 78%
- Serum Progesterone (Percent Control) (pregnancy in rats [1]; [6]): 29 Percent Control
- Serum Progesterone ng/ml + S.E. (pregnancy in rats [1]; [6]): 13.4 + 3.9 ng/ml
- Adrenal Wt. mg + SE (pregnancy in rats [1]; [7]): 68.6 + 2.3 mg
- Fetal Viability: Normal Fetuses/Implantation Sites (pregnancy in rats [1]; [7]): 0/112
- Fetal Viability: Normal Fetuses/Implantation Sites (Percent) (pregnancy in rats [1]; [7]): 0%
- Number of Rats Pregnant/Number of Rats Treated (pregnancy in rats [1]; [7]): 0/10
- Number of Rats Pregnant/Number of Rats Treated (Percent) (pregnancy in rats [1]; [7]): 0%
- Serum Progesterone (Percent Control) (pregnancy in rats [1]; [8]): 40 Percent Control
- Serum Progesterone ng/ml + S.E. (pregnancy in rats [1]; [8]): 18.1 + 2.5 ng/ml
- Adrenal Wt. mg + SE (pregnancy in rats [1]; [9]): 70.3 + 3.1 mg
- Fetal Viability: Normal Fetuses/Implantation Sites (pregnancy in rats [1]; [9]): 0/95
- Fetal Viability: Normal Fetuses/Implantation Sites (Percent) (pregnancy in rats [1]; [9]): 0%
- Number of Rats Pregnant/Number of Rats Treated (pregnancy in rats [1]; [9]): 0/10
- Number of Rats Pregnant/Number of Rats Treated (Percent) (pregnancy in rats [1]; [9]): 0%
- Serum Progesterone (Percent Control) (pregnancy in rats [1]; [10]): 29 Percent Control
- Serum Progesterone ng/ml + S.E. (pregnancy in rats [1]; [10]): 13.4 + 2.0 ng/ml
- Adrenal Wt. mg + SE (pregnancy in rats [1]; [11]): 72.1 + 2.1 mg
- Fetal Viability: Normal Fetuses/Implantation Sites (pregnancy in rats [1]; [11]): 0/111
- Fetal Viability: Normal Fetuses/Implantation Sites (Percent) (pregnancy in rats [1]; [11]): 0%
- Number of Rats Pregnant/Number of Rats Treated (pregnancy in rats [1]; [11]): 0/10
- Number of Rats Pregnant/Number of Rats Treated (Percent) (pregnancy in rats [1]; [11]): 0%
- Serum Progesterone (Percent Control) (pregnancy in rats [2]; [12]): 91 Percent Control
- Serum Progesterone ng/ml + S.E. (pregnancy in rats [2]; [12]): 52.3 + 2.8 ng/ml
- Adrenal Wt. mg + SE (pregnancy in rats [2]; [13]): 81.2 + 3.2 mg
- Fetal Viability: Normal Fetuses/Implantation Sites (pregnancy in rats [2]; [13]): 101/109
- Fetal Viability: Normal Fetuses/Implantation Sites (Percent) (pregnancy in rats [2]; [13]): 93%
- Number of Rats Pregnant/Number of Rats Treated (pregnancy in rats [2]; [13]): 9/9
- Number of Rats Pregnant/Number of Rats Treated (Percent) (pregnancy in rats [2]; [13]): 100%
- Serum Progesterone (Percent Control) (pregnancy in rats [2]; [14]): 32 Percent Control
- Serum Progesterone ng/ml + S.E. (pregnancy in rats [2]; [14]): 14.2 + 4.9 ng/ml
- Adrenal Wt. mg + SE (pregnancy in rats [2]; [15]): 72.9 + 3.8 mg
- Fetal Viability: Normal Fetuses/Implantation Sites (pregnancy in rats [2]; [15]): 21/72
- Fetal Viability: Normal Fetuses/Implantation Sites (Percent) (pregnancy in rats [2]; [15]): 29%
- Number of Rats Pregnant/Number of Rats Treated (pregnancy in rats [2]; [15]): 2/7
- Number of Rats Pregnant/Number of Rats Treated (Percent) (pregnancy in rats [2]; [15]): 29%
- Serum Progesterone (Percent Control) (pregnancy in rats [2]; [16]): 29 Percent Control
- Serum Progesterone ng/ml + S.E. (pregnancy in rats [2]; [16]): 12.7 + 1.4 ng/ml
- Adrenal Wt. mg + SE (pregnancy in rats [2]; [17]): 83.9 + 2.0 mg
- Fetal Viability: Normal Fetuses/Implantation Sites (pregnancy in rats [2]; [17]): 0/112
- Fetal Viability: Normal Fetuses/Implantation Sites (Percent) (pregnancy in rats [2]; [17]): 0%
- Number of Rats Pregnant/Number of Rats Treated (pregnancy in rats [2]; [17]): 0/9
- Number of Rats Pregnant/Number of Rats Treated (Percent) (pregnancy in rats [2]; [17]): 0%
- Serum Progesterone (Percent Control) (pregnancy in rats [2]; [18]): 26 Percent Control and 36 Percent Control
- Serum Progesterone ng/ml + S.E. (pregnancy in rats [2]; [18]): 13.1 + 1.4 ng/ml and 15.7 + 2.8 ng/ml
- Fetal Viability: Normal Fetuses/Implantation Sites (Percent) (pregnancy in rats [2]; [19]): 0%
- Number of Rats Pregnant/Number of Rats Treated (pregnancy in rats [2]; [19]): 0/8
- Number of Rats Pregnant/Number of Rats Treated (Percent) (pregnancy in rats [2]; [19]): 0%
- Adrenal Wt. mg + SE (pregnancy in rats [2]; [20]): 93.8 + 4.9 mg and 98.3 + 2.8 mg
- Fetal Viability: Normal Fetuses/Implantation Sites (pregnancy in rats [2]; [20]): 0/98 and 0/84
- Serum Progesterone (Percent Control) (pregnancy in rats [3]; [21]): 33 Percent Control
- Serum Progesterone ng/ml + S.E. (pregnancy in rats [3]; [21]): 19.0 + 7.4 ng/ml
- Adrenal Wt. mg + SE (pregnancy in rats [3]; [22]): 60.0 + 4.2 mg
- Fetal Viability: Normal Fetuses/Implantation Sites (pregnancy in rats [3]; [22]): 6/82
- Fetal Viability: Normal Fetuses/Implantation Sites (Percent) (pregnancy in rats [3]; [22]): 7%
- Number of Rats Pregnant/Number of Rats Treated (pregnancy in rats [3]; [22]): 1/8
- Number of Rats Pregnant/Number of Rats Treated (Percent) (pregnancy in rats [3]; [22]): 13%
- Serum Progesterone (Percent Control) (pregnancy in rats [3]; [23]): 18 Percent Control
- Serum Progesterone ng/ml + S.E. (pregnancy in rats [3]; [23]): 10.4 + 2.5 ng/ml
- Adrenal Wt. mg + SE (pregnancy in rats [3]; [24]): 62.0 + 2.5 mg
- Fetal Viability: Normal Fetuses/Implantation Sites (pregnancy in rats [3]; [24]): 0/81
- Fetal Viability: Normal Fetuses/Implantation Sites (Percent) (pregnancy in rats [3]; [24]): 0%
- Number of Rats Pregnant/Number of Rats Treated (pregnancy in rats [3]; [24]): 0/7
- Number of Rats Pregnant/Number of Rats Treated (Percent) (pregnancy in rats [3]; [24]): 0%
- Serum Progesterone (Percent Control) (pregnancy in rats [3]; [25]): 24 Percent Control
- Serum Progesterone ng/ml + S.E. (pregnancy in rats [3]; [25]): 13.8 + 1.7 ng/ml
- Adrenal Wt. mg + SE (pregnancy in rats [3]; [26]): 56.8 + 2.0 mg
- Fetal Viability: Normal Fetuses/Implantation Sites (pregnancy in rats [3]; [26]): 0/60
- Fetal Viability: Normal Fetuses/Implantation Sites (Percent) (pregnancy in rats [3]; [26]): 0%
- Number of Rats Pregnant/Number of Rats Treated (pregnancy in rats [3]; [26]): 0/6
- Number of Rats Pregnant/Number of Rats Treated (Percent) (pregnancy in rats [3]; [26]): 0%

— patent publication US4388311A, “Method for the induction of menses” (G. D. Searle & Co., priority 1982, dated 1983)
